Results published in ChEMBL document CHEMBL3399937, “(18)F-AmBF3-MJ9: a novel radiofluorinated bombesin derivative for prostate cancer imaging” (Bioorg Med Chem, 2015).

Target: Gastrin-releasing peptide receptor (Rattus norvegicus) (UniProt P52500)
Test: Binding affinity to rat pancreatic acini GRPR

Gastrin-releasing peptide receptor (Rattus norvegicus), sequence (P52500 whole entry): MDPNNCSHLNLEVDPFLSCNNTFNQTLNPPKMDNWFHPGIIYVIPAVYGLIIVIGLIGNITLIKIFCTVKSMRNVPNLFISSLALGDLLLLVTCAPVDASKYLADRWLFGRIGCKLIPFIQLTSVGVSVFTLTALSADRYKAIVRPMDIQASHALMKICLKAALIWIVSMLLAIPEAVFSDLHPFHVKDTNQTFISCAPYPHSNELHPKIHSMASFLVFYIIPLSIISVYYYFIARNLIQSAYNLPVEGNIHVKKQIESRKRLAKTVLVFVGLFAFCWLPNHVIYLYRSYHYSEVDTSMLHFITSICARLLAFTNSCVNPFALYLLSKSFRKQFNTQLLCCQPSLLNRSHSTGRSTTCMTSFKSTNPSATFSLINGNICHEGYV

Activity: 0.9 nM
SMILES: CC(C)C[C@H](NC(=O)C[C@H](O)[C@H](CC(C)C)NC(=O)[C@H](Cc1cnc[nH]1)NC(=O)CNC(=O)[C@@H](NC(=O)[C@H](C)NC(=O)[C@H](Cc1c[nH]c2ccccc12)NC(=O)[C@H](CCC(N)=O)NC(=O)[C@H](N)Cc1ccccc1)C(C)C)C(N)=O
